# Data from PubChem BioAssay AID1963871 (Molecular Pharmacology Branch, DTP, NCI, 2024).
# Test system: KRAS-mutant PDC multicell tumor spheroid viability
# Assay: Anticancer human tumor 521955-158-R2-J5-PDC patient-derived pancreatic carcinoma cell line growth inhibition [KRAS2]
# Settings: for viability, T/C: stronger effect = lower value
# Procedure, shortened: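 Combination screen of spheroid viability in tumor-cell co-cultures with endothelial (HUVEC) and mesenchymal stem cell stroma. Each agent was tested in half-log dilutions, topping at clinical Cmax or at 10 microM without a known Cmax.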
# [1] = curve of first compound, second compound 0.1 µM
# [2] = curve of first compound, second compound 0.316 µM
# [3] = curve of first compound, second compound 1 µM
# [4] = curve of first compound, second compound 3.16 µM
# [5] = curve of first compound, second compound 10 µM
# [6] = second compound 0.1 µM, first compound 0.000316 µM
# [7] = second compound 0.1 µM, first compound 0.001 µM
# [8] = second compound 0.1 µM, first compound 0.00316 µM
# [9] = second compound 0.1 µM, first compound 0.01 µM
# [10] = second compound 0.1 µM, first compound 0.0316 µM
# [11] = second compound 0.1 µM, first compound 0.1 µM
# [12] = second compound 0.316 µM, first compound 0.000316 µM
# [13] = second compound 0.316 µM, first compound 0.001 µM
# [14] = second compound 0.316 µM, first compound 0.00316 µM
# [15] = second compound 0.316 µM, first compound 0.01 µM
# [16] = second compound 0.316 µM, first compound 0.0316 µM
# [17] = second compound 0.316 µM, first compound 0.1 µM
# [18] = second compound 1 µM, first compound 0.000316 µM
# [19] = second compound 1 µM, first compound 0.001 µM
# [20] = second compound 1 µM, first compound 0.00316 µM
# [21] = second compound 1 µM, first compound 0.01 µM
# [22] = second compound 1 µM, first compound 0.0316 µM
# [23] = second compound 1 µM, first compound 0.1 µM
# [24] = second compound 3.16 µM, first compound 0.000316 µM
# [25] = second compound 3.16 µM, first compound 0.001 µM
# [26] = second compound 3.16 µM, first compound 0.00316 µM
# [27] = second compound 3.16 µM, first compound 0.01 µM
# [28] = second compound 3.16 µM, first compound 0.0316 µM
# [29] = second compound 3.16 µM, first compound 0.1 µM
# [30] = second compound 10 µM, first compound 0.000316 µM
# [31] = second compound 10 µM, first compound 0.001 µM
# [32] = second compound 10 µM, first compound 0.00316 µM
# [33] = second compound 10 µM, first compound 0.01 µM
# [34] = second compound 10 µM, first compound 0.0316 µM
# [35] = second compound 10 µM, first compound 0.1 µM
# [36] = second compound 0.1 µM, first compound 0.316 µM
# [37] = second compound 0.1 µM, first compound 1 µM
# [38] = second compound 0.1 µM, first compound 3.16 µM
# [39] = second compound 0.1 µM, first compound 10 µM
# [40] = second compound 0.316 µM, first compound 0.316 µM
# [41] = second compound 0.316 µM, first compound 1 µM
# [42] = second compound 0.316 µM, first compound 3.16 µM
# [43] = second compound 0.316 µM, first compound 10 µM
# [44] = second compound 1 µM, first compound 0.316 µM
# [45] = second compound 1 µM, first compound 1 µM
# [46] = second compound 1 µM, first compound 3.16 µM
# [47] = second compound 1 µM, first compound 10 µM
# [48] = second compound 3.16 µM, first compound 0.316 µM
# [49] = second compound 3.16 µM, first compound 1 µM
# [50] = second compound 3.16 µM, first compound 3.16 µM
# [51] = second compound 3.16 µM, first compound 10 µM
# [52] = second compound 10 µM, first compound 0.316 µM
# [53] = second compound 10 µM, first compound 1 µM
# [54] = second compound 10 µM, first compound 3.16 µM
# [55] = second compound 10 µM, first compound 10 µM
# 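Further: viability read after seven days of drug exposure.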
compound,measurement,setting,value
Cn1ncnc1[C@H]1c2n[nH]c(=O)c3cc(F)cc(c23)N[C@@H]1c1ccc(F)cc1 + C=CC(=O)N1CCN(c2nc(=O)n(-c3c(C)ccnc3C(C)C)c3nc(-c4c(O)cccc4F)c(F)cc23)C(C)C1,IC50,[1],> 0.1 µM
same,IC50,[2],> 0.1 µM
same,IC50,[3],> 0.1 µM
same,IC50,[4],> 0.1 µM
same,IC50,[5],> 0.1 µM
same,"viability, T/C",[6],104%
same,"viability, T/C",[7],106%
same,"viability, T/C",[8],89.6%
same,"viability, T/C",[9],96.3%
same,"viability, T/C",[10],87.2%
same,"viability, T/C",[11],79.3%
same,"viability, T/C",[12],109%
same,"viability, T/C",[13],108%
same,"viability, T/C",[14],103%
same,"viability, T/C",[15],80.6%
same,"viability, T/C",[16],82.6%
same,"viability, T/C",[17],86.3%
same,"viability, T/C",[18],103%
same,"viability, T/C",[19],107%
same,"viability, T/C",[20],96.6%
same,"viability, T/C",[21],85.9%
same,"viability, T/C",[22],83.3%
same,"viability, T/C",[23],68.2%
same,"viability, T/C",[24],95.5%
same,"viability, T/C",[25],89.8%
same,"viability, T/C",[26],97.7%
same,"viability, T/C",[27],75.2%
same,"viability, T/C",[28],66.4%
same,"viability, T/C",[29],61.9%
same,"viability, T/C",[30],63.9%
same,"viability, T/C",[31],67.8%
same,"viability, T/C",[32],60.9%
same,"viability, T/C",[33],59.6%
same,"viability, T/C",[34],59.8%
same,"viability, T/C",[35],57.7%
CC(C)n1nc(-c2ccc3oc(N)nc3c2)c2c(N)ncnc21 + C=CC(=O)N1CCN(c2nc(=O)n(-c3c(C)ccnc3C(C)C)c3nc(-c4c(O)cccc4F)c(F)cc23)C(C)C1,IC50,[1],0.00961 µM
same,IC50,[2],0.0075 µM
same,IC50,[3],0.00719 µM
same,IC50,[4],0.00343 µM
same,IC50,[5],0.000703 µM
same,"viability, T/C",[6],110%
same,"viability, T/C",[7],97.8%
same,"viability, T/C",[8],63.6%
same,"viability, T/C",[9],52.8%
same,"viability, T/C",[10],36.7%
same,"viability, T/C",[11],27.2%
same,"viability, T/C",[12],117%
same,"viability, T/C",[13],98.1%
same,"viability, T/C",[14],65.5%
same,"viability, T/C",[15],44.6%
same,"viability, T/C",[16],35.5%
same,"viability, T/C",[17],26.9%
same,"viability, T/C",[18],117%
same,"viability, T/C",[19],102%
same,"viability, T/C",[20],64.3%
same,"viability, T/C",[21],43.8%
same,"viability, T/C",[22],36.6%
same,"viability, T/C",[23],24%
same,"viability, T/C",[24],91.7%
same,"viability, T/C",[25],79.7%
same,"viability, T/C",[26],51.9%
same,"viability, T/C",[27],29.7%
same,"viability, T/C",[28],26.9%
same,"viability, T/C",[29],23.1%
same,"viability, T/C",[30],58.1%
same,"viability, T/C",[31],46.9%
same,"viability, T/C",[32],32.5%
same,"viability, T/C",[33],25.7%
same,"viability, T/C",[35],18.8%
CC(=O)OC12COC1CC(O)C1(C)C(=O)C(O)C3=C(C)C(OC(=O)C(O)C(NC(=O)OC(C)(C)C)c4ccccc4)CC(O)(C(OC(=O)c4ccccc4)C21)C3(C)C (stereo unspecified),"viability, T/C",compound 0.01 µM,22.3% [middle of 5 runs]
same,"viability, T/C",compound 0.0316 µM,15.3% [middle of 5 runs]
same,"viability, T/C",compound 0.1 µM,14.2% [middle of 5 runs]
same,"viability, T/C",compound 0.316 µM,15.2% [middle of 5 runs]
same,"viability, T/C",compound 1 µM,18.1% [middle of 5 runs]
same,"viability, T/C",compound 3.16 µM,21.9% [middle of 5 runs]
same,IC50,curve of compound,< 0.01 µM
COC(=O)c1ccc2c(C(=Nc3ccc(N(C)C(=O)CN4CCN(C)CC4)cc3)c3ccccc3)c(O)[nH]c2c1 + CNCc1ccccc1-c1csc(C(C)Nc2nc(C)nc3cc(OC)c(OC)cc23)c1,IC50,[1],2.26 µM
same,IC50,[2],1.8 µM
same,IC50,[3],1.96 µM
same,IC50,[4],< 0.0316 µM
same,IC50,[5],< 0.0316 µM
same,"viability, T/C",[10],87.3%
same,"viability, T/C",[11],111%
same,"viability, T/C",[36],103%
same,"viability, T/C",[37],123%
same,"viability, T/C",[38],26.9%
same,"viability, T/C",[39],1.42%
same,"viability, T/C",[16],90%
same,"viability, T/C",[17],101%
same,"viability, T/C",[40],100%
same,"viability, T/C",[41],107%
same,"viability, T/C",[42],2.22%
same,"viability, T/C",[43],0.15%
same,"viability, T/C",[22],97.1%
same,"viability, T/C",[23],103%
same,"viability, T/C",[44],115%
same,"viability, T/C",[45],95.3%
same,"viability, T/C",[46],17.5%
same,"viability, T/C",[47],0.14%
same,"viability, T/C",[28],0.52%
same,"viability, T/C",[29],0.17%
same,"viability, T/C",[48],0.16%
same,"viability, T/C",[49],0.15%
same,"viability, T/C",[50],0.07%
same,"viability, T/C",[51],0.59%
same,"viability, T/C",[34],0.14%
same,"viability, T/C",[35],0.13%
same,"viability, T/C",[52],0.13%
same,"viability, T/C",[53],0.13%
same,"viability, T/C",[54],0.12%
same,"viability, T/C",[55],0.19%
CCNC(=O)CC1N=C(c2ccc(Cl)cc2)c2cc(OC)ccc2-n2c(C)nnc21 (stereo unspecified) + C=CC(=O)N1CCN(c2nc(OCC3CCCN3C)nc3c2CCN(c2cccc4cccc(C)c24)C3)CC1CC#N,IC50,"curve of first compound, second compound 0.0316 µM",0.395 µM
same,IC50,[1],0.34 µM
same,IC50,[2],0.302 µM
same,IC50,[3],0.291 µM
same,IC50,[4],< 0.0316 µM
same,"viability, T/C","second compound 0.0316 µM, first compound 0.0316 µM",106%
same,"viability, T/C","second compound 0.0316 µM, first compound 0.1 µM",94.9%
same,"viability, T/C","second compound 0.0316 µM, first compound 0.316 µM",52.9%
same,"viability, T/C","second compound 0.0316 µM, first compound 1 µM",38%
same,"viability, T/C","second compound 0.0316 µM, first compound 3.16 µM",32.4%
same,"viability, T/C","second compound 0.0316 µM, first compound 10 µM",34.2%
same,"viability, T/C",[10],96.3%
same,"viability, T/C",[11],79.4%
same,"viability, T/C",[36],50.7%
same,"viability, T/C",[37],36%
same,"viability, T/C",[38],34.3%
same,"viability, T/C",[39],30.1%
same,"viability, T/C",[16],103%
same,"viability, T/C",[17],97.6%
same,"viability, T/C",[40],47.8%
same,"viability, T/C",[41],35.2%
same,"viability, T/C",[42],31.6%
same,"viability, T/C",[43],32.7%
same,"viability, T/C",[22],84.3%
same,"viability, T/C",[23],77%
same,"viability, T/C",[44],48.1%
same,"viability, T/C",[45],30.1%
same,"viability, T/C",[46],28.1%
same,"viability, T/C",[47],29.4%
same,"viability, T/C",[28],29.8%
same,"viability, T/C",[29],22%
same,"viability, T/C",[48],22.2%
same,"viability, T/C",[49],0.29%
same,"viability, T/C",[50],14.3%
same,"viability, T/C",[51],11.2%
CC1(C)CCC(CN2CCN(c3ccc(C(=O)NS(=O)(=O)c4ccc(NCC5CCOCC5)c([N+](=O)[O-])c4)c(Oc4cnc5[nH]ccc5c4)c3)CC2)=C(c2ccc(Cl)cc2)C1 + C=CC(=O)N1CCN(c2nc(=O)n(-c3c(C)ccnc3C(C)C)c3nc(-c4c(O)cccc4F)c(F)cc23)C(C)C1,IC50,[1],5.91 µM
same,IC50,[2],5.02 µM
same,IC50,[3],3.69 µM
same,IC50,[4],3.46 µM
same,IC50,[5],1.94 µM
same,"viability, T/C",[10],100%
same,"viability, T/C",[11],116%
same,"viability, T/C",[36],106%
same,"viability, T/C",[37],109%
same,"viability, T/C",[38],92.3%
same,"viability, T/C",[39],14.3%
same,"viability, T/C",[16],96%
same,"viability, T/C",[17],110%
same,"viability, T/C",[40],106%
same,"viability, T/C",[41],112%
same,"viability, T/C",[42],76.1%
same,"viability, T/C",[43],11.1%
same,"viability, T/C",[22],114%
same,"viability, T/C",[23],104%
same,"viability, T/C",[44],113%
same,"viability, T/C",[45],111%
same,"viability, T/C",[46],56%
same,"viability, T/C",[47],10.2%
same,"viability, T/C",[28],90.9%
same,"viability, T/C",[29],102%
same,"viability, T/C",[48],92.4%
same,"viability, T/C",[49],86.9%
same,"viability, T/C",[50],52.3%
same,"viability, T/C",[51],22.5%
same,"viability, T/C",[34],75.9%
same,"viability, T/C",[35],68.8%
same,"viability, T/C",[52],72.9%
same,"viability, T/C",[53],61.9%
same,"viability, T/C",[54],40.9%
same,"viability, T/C",[55],13.3%
